Among the targets are AZI2 (Homo sapiens, UniProt Q9H6S1); BMPR1A (Homo sapiens, UniProt P36894); CDC42BPG (Homo sapiens, UniProt Q6DT37); CSNK2A1 (Homo sapiens, UniProt P68400); EPHB4 (Homo sapiens, UniProt P54760); PDPK1 (Homo sapiens, UniProt O15530); PKMYT1 (Homo sapiens, UniProt Q99640); RAF1 (Homo sapiens, UniProt P04049); YES1 (Homo sapiens, UniProt P07947); CAMKK2 (Homo sapiens, UniProt Q96RR4); EPHB1 (Homo sapiens, UniProt P54762); ERBB4 (Homo sapiens, UniProt Q15303); FGFR1 (Homo sapiens, UniProt P11362); KIT (Homo sapiens, UniProt P10721); LYN (Homo sapiens, UniProt P07948); NEK3 (Homo sapiens, UniProt P51956); PRKCB (Homo sapiens, UniProt P05771); PRKCI (Homo sapiens, UniProt P41743); RPS6KA1 (Homo sapiens, UniProt Q15418); TLK2 (Homo sapiens, UniProt Q86UE8); mTOR (Homo sapiens, UniProt P42345).

Common to all, as to assay: biochemical
Holding throughout (set-up): species or system HEK293/K-562/placenta mixed human extract; Kinobeads chemoproteomic competition binding, quantified by TMT LC-MS/MS, dose response up to 20 uM

Each structure is given as a SMILES string.

The record followed here is paper PMC6407917, “Identification of GSK3186899/DDD853651 as a Preclinical Development Candidate for the Treatment of Visceral Leishmaniasis” (Journal of Medicinal Chemistry, 2018).

EPHB4, sequence (P54760 whole entry): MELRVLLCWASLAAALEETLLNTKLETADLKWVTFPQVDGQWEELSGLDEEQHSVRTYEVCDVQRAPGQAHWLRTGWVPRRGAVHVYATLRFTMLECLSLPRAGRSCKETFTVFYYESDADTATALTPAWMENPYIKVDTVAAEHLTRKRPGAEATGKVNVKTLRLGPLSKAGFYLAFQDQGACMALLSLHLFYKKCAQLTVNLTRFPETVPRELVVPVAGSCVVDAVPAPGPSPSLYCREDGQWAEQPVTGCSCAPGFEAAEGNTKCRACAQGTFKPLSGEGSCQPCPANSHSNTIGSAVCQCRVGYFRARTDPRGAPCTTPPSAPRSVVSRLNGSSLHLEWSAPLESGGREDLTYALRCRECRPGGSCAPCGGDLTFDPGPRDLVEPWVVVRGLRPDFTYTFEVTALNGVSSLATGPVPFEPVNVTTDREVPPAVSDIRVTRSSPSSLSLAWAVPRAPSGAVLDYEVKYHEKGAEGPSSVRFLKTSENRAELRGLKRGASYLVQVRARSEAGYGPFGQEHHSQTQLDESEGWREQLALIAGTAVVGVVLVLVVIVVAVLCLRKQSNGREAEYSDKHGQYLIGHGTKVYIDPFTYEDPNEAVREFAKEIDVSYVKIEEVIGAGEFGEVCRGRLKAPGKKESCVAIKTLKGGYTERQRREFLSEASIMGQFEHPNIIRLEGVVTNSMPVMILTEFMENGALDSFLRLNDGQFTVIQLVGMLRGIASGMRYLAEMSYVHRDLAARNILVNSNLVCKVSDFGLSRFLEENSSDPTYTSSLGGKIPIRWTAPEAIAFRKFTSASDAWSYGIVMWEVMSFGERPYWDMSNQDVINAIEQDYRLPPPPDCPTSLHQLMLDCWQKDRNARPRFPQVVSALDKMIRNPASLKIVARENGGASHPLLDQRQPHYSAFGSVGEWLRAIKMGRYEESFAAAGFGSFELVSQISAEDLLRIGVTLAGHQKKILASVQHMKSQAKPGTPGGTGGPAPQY
CDC42BPG, sequence (Q6DT37 whole entry): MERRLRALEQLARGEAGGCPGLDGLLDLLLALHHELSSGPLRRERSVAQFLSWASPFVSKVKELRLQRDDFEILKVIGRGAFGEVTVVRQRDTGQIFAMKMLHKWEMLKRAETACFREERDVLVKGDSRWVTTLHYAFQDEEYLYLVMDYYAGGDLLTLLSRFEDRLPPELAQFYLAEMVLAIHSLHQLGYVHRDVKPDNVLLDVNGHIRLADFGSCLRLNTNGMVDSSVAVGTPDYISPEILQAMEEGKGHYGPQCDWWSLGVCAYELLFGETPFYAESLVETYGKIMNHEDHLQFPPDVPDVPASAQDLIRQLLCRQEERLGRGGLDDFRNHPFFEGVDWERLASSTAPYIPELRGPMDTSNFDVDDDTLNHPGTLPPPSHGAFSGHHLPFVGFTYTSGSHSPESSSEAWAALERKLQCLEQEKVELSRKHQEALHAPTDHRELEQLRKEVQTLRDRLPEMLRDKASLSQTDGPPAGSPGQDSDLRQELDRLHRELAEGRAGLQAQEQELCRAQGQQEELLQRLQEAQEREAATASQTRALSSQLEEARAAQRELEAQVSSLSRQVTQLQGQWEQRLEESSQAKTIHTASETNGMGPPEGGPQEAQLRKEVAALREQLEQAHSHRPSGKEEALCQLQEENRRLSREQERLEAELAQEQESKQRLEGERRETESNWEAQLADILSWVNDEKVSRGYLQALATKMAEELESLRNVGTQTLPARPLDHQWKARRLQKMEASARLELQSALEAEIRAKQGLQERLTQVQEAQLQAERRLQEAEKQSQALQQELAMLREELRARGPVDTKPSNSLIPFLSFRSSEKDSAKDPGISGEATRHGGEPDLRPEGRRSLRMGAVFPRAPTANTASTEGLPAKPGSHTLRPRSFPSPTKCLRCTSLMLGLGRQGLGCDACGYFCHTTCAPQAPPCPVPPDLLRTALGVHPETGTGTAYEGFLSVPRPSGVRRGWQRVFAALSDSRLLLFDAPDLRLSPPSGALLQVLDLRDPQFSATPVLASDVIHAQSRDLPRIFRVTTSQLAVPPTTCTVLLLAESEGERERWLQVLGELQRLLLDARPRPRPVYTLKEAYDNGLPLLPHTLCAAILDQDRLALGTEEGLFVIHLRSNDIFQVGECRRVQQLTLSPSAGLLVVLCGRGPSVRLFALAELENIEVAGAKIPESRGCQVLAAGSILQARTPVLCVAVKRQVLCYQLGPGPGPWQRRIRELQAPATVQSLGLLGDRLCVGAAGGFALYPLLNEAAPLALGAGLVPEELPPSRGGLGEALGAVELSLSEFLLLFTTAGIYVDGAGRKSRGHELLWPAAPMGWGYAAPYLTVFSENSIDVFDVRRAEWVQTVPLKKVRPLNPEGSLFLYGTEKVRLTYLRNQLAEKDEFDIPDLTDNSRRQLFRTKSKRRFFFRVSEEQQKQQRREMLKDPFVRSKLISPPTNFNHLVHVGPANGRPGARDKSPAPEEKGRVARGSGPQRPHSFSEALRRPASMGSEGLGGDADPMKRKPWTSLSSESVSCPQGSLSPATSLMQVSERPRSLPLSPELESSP
LYN, sequence (P07948 whole entry): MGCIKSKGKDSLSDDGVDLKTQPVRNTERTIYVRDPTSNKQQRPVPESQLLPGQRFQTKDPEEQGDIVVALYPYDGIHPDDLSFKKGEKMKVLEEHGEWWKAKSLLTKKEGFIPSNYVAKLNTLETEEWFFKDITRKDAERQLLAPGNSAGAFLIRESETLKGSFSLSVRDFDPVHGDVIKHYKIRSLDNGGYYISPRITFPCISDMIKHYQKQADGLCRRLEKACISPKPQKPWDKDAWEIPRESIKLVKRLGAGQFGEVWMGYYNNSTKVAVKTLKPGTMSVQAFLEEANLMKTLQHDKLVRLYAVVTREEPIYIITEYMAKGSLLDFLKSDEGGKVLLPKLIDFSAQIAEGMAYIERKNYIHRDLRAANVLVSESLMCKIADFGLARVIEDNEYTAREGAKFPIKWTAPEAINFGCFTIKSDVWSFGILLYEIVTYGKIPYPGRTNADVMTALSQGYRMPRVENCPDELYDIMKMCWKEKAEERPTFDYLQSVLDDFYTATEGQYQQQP
RPS6KA1, sequence (Q15418 whole entry): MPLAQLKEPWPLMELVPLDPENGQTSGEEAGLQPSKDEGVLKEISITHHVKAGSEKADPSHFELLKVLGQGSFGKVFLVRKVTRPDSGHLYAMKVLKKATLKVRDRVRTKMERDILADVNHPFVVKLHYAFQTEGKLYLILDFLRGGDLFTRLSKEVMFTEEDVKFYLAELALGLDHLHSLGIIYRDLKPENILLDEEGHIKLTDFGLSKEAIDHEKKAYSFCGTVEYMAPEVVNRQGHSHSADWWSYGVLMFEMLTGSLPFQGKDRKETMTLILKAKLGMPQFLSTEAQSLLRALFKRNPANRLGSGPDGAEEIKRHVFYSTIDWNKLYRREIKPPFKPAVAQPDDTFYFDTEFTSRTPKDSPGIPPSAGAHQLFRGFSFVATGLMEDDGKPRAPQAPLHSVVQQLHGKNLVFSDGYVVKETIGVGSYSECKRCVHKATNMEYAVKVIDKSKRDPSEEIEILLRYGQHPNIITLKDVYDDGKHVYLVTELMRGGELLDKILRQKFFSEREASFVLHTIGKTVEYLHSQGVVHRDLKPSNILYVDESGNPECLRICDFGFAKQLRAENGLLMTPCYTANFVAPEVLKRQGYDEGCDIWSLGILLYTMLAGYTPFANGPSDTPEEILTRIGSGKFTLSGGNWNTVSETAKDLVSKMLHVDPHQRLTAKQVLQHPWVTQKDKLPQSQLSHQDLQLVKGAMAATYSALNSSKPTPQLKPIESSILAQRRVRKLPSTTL
PRKCI, sequence (P41743 whole entry): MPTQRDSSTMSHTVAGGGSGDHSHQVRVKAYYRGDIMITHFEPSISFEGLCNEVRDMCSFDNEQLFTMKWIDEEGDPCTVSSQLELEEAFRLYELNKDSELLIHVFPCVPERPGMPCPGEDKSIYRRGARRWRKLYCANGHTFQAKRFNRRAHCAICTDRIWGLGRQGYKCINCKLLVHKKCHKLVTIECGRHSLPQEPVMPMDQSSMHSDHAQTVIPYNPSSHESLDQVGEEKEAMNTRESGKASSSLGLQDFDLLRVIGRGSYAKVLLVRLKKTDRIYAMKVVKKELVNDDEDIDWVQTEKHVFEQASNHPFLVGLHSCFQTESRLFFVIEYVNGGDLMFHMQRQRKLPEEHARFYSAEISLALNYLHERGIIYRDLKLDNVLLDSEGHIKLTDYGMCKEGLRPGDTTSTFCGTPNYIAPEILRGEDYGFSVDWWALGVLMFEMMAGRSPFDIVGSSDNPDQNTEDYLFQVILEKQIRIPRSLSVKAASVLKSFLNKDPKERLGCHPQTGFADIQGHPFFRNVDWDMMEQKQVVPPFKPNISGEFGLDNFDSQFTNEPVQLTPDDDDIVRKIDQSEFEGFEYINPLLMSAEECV
BMPR1A, sequence (P36894 whole entry): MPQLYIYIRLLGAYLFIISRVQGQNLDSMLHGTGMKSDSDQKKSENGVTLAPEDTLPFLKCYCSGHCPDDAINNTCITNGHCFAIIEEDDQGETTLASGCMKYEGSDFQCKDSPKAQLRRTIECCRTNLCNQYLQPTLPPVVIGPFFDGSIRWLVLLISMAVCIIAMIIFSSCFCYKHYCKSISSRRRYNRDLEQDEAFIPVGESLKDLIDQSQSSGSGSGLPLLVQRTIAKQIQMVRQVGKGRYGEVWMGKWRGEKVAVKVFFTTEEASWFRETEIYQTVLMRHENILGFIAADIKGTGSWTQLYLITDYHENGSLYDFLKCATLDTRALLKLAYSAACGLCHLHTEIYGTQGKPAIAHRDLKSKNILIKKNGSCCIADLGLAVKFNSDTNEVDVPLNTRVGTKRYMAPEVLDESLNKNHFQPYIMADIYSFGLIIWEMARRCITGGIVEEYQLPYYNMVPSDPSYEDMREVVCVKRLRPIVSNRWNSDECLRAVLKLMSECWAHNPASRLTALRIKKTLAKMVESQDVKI

By IC50 is commonly meant the concentration that gives 50% inhibition. Lower therefore signals higher potency. `COc1nc(N[C@H]2CC[C@H](NS(=O)(=O)CC(C)C)CC2)nc2[nH]nc(N3CCOC[C@H]3C)c12` [compound 39, N-(trans-4-((4-Methoxy-3-((R)-3-methylmorpholino)-1H-pyrazolo[3,4-d]pyrimidin-6-yl)amino)cyclohexyl)-2-methylpropane-1-sulfonamide]: the IC50 at AZI2, at BMPR1A, at CDC42BPG, at CSNK2A1, at EPHB4 and at PDPK1 was at least 20 µM each time. Further, the IC50 at PKMYT1, on RAF1 and on YES1 was at least 20 µM each time.

`COc1ccccc1-c1n[nH]c2nc(N[C@H]3CC[C@H](NS(=O)(=O)CCC(F)(F)F)CC3)nc(OC)c12` [compound 31, 3,3,3-Trifluoro-N-(trans-4-((4-methoxy-3-(2-methoxyphenyl)-1H-pyrazolo[3,4-d]pyrimidin-6-yl)amino)cyclohexyl)propane-1-sulfonamide]: the IC50 was 8.6 µM at CAMKK2; at least 20 µM on EPHB1; at least 20 µM on ERBB4; at least 20 µM at FGFR1; at least 20 µM on KIT; at least 20 µM at LYN. Also, the IC50 on NEK3, at PRKCB, at PRKCI, on RPS6KA1, at TLK2 and at mTOR was at least 20 µM each time.
